Entries after “also recorded” stand apart in the source; their conditions may differ.
System: human basophils
Experiment: antidegranulating or antiactivating activity on human basophils by flow cytometry (anti-IgE stimulation, CD63 label)
Type: cell-based
Conditions: in vitro, same experimental conditions as the oligosaccharides
Description: In order to test the antidegranulating or antiactivating activity of the oligosaccharides on human basophils by flow cytometry, leukocyte suspensions from different individuals selected as being good at responding to anti-IgE were used to isolate the leukocytes, by simple sedimentation at 1 g. These leukocytes are preincubated for 30 minutes with successive dilutions from 10 to 0.01 mg/ml of the test product. The basophils are then stimulated with a target concentration of a human anti-IgE labeled with a mixture of anti-IgE FITC and anti-CD63PE antibodies, CD63 being an activation label for human basophils. The percentages of activation or of inhibition are then calculated by flow cytometry. The biological activity of the oligosaccharides was thus evaluated.
The same biological tests were performed on structural analogs such as raffinose or oligosaccharides comprising an α bond between a galactose unit and another saccharide unit such as in melibiose.
Tests were thus undertaken. […] The percentage of inhibition was calculated by repeating the experiment three times.

OC[C@H]1O[C@H](OCC2O[C@@H](O)[C@H](O)[C@@H](O)[C@@H]2O)[C@H](O)[C@@H](O)[C@H]1O (stereo partly shown) [melibiose]
activity on leukocytes / mastocytes: not active; also recorded: absolutely no activity

Source: patent publication US6946121B2, “Composition in particular cosmetic or dermatological composition, containing oligosaccharides and preparation method and cosmetic treatment method” (Laboratories G Pharm, priority 1999, dated 2005)
